Data published in patent US5981497A, “Utilization of sophorolipids as therapeutically active substances or cosmetic products, in particular for the treatment of the skin” (Institut Francais du Petrole, priority 1995, dated 1999).

Columns and labels:
[1] = target: T1, fibrin clot reconstituted with bovine thrombin and human fibrinogen (Homo sapiens, UniProt P02671+P02675+P02679); assay: Fibrinolysis in vitro (lysis of fibrin clot); assay type: biochemical;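 also: values are percent lysis of the fibrin clot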
T1 sequence (P02671 20-644 isoform P02671-2 limits assumed): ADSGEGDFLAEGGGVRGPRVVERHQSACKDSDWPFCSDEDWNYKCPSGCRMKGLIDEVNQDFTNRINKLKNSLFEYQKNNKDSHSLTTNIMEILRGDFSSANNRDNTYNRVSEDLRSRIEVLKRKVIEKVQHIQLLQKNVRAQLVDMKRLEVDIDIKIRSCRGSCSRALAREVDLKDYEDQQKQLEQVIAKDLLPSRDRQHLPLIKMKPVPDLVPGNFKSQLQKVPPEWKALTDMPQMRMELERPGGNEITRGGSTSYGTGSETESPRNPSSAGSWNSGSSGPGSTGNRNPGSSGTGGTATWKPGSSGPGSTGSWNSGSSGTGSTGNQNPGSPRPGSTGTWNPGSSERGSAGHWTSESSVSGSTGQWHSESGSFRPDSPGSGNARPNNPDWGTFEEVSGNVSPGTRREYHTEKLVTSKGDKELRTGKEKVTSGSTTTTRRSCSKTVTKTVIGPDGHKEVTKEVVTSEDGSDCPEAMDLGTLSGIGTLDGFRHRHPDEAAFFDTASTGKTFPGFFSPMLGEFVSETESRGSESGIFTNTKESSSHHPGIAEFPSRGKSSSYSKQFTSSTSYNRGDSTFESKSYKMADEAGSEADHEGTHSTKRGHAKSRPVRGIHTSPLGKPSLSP
T1 sequence (P02675 45-491 limits assumed): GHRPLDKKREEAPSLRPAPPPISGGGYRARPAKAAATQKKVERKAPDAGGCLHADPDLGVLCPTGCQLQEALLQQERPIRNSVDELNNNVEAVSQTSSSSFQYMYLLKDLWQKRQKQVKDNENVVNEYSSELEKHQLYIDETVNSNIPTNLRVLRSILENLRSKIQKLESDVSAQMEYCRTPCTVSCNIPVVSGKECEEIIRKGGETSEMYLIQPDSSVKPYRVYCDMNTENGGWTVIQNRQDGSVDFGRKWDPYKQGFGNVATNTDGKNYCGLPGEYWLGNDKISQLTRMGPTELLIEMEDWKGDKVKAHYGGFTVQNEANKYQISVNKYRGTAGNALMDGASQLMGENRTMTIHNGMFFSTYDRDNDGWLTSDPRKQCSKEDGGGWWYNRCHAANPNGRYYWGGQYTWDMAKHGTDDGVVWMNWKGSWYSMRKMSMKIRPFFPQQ
T1 sequence (P02679 27-437 isoform P02679-2 limits assumed): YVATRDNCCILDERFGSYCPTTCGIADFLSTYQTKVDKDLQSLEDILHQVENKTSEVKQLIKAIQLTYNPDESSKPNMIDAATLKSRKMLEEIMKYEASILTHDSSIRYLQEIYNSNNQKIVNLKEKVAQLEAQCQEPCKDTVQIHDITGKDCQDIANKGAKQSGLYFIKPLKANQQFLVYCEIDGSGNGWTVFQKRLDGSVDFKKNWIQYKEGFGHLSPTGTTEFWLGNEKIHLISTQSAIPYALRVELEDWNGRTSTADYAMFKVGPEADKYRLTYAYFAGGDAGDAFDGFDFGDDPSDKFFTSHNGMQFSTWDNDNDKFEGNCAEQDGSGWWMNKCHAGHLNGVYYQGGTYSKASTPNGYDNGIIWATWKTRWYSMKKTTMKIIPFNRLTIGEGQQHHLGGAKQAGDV
Method: They also act directly on necrotic plaque. […] This lysis was measured from a fibrin clot that was reconstituted with bovine thrombin and human fibrinogen. The clot that is obtained is covered by 0.5 ml of PBS that contains the sample. The modification of the fibrin gel thickness at 4 hours and 24 hours makes it possible to quantify the fibrinolytic activity. This activity will therefore promote fibrinolysis at wounds, making it possible to act on the bedsore spot and to induce better granulation, as well as better organic tissue oxygenation. Moreover, owing to their surfactant property, sophorolipids make the fragments, molecules, soluble and detach the dead cells from the bed of the wound. This last action is more particularly due to their role in desquamation, which will be described below.

[2] = Cytotoxicity on primocultures at 24 hours (neutral red), fibroblasts; assay type: cell-based; details: fibroblasts, 24 hours, read-out: Cellular Viability Rate; for viability at 24 h, 1000 µM: 10^-3M; for viability at 24 h, 100 µM: 10^-4M; for viability at 24 h, 10 µM: 10^-5M; for viability at 24 h, 1 µM: 10^-6M
Source text: (§1) Their innocuousness and their activity make it possible to use them in other stages of healing, namely granulation and epithelialization, by modulating their concentration in the formulas of products that are used. This is possible only because of the low cytotoxicity of sophorolipids, as Tables 3A and 3B show. The toxicity of the products of the invention has been evaluated with a viability test with neutral red on two cellular types of the skin, cells L929 and other fibroblasts of the dermis and cells NCTC 2544 and keratinocytes of the epidermis. The results, which are presented in Tables 3A, 3B, correspond to the rates of cellular viability that are expressed in % relative to the negative test.

[3] = Cytotoxicity on primocultures at 24 hours (neutral red), keratinocytes; assay type: cell-based; details: read-out: Cellular Viability Rate; for viability at 24 h, 1000 µM: 10^-3M; for viability at 24 h, 100 µM: 10^-4M; for viability at 24 h, 10 µM: 10^-5M; for viability at 24 h, 1 µM: 10^-6M
Source text: as §1

[4] = Cytotoxicity on L929 at 24 hours (neutral red); assay type: cell-based; details: mouse, l929 cells, read-out: Cellular Viability Rate; for viability at 24 h, 50000 µM: 5.10-2M; for viability at 24 h, 5000 µM: 5.10-3M; for viability at 24 h, 500 µM: 5.10-4M; for viability at 24 h, 10000 µM: 10^-2M; for viability at 24 h, 1000 µM: 10^-3M; for viability at 24 h, 100 µM: 10^-4M; for viability at 24 h, 10 µM: 10^-5M
Source text: as §1

[5] = Cytotoxicity on NCTC2544 at 24 hours (neutral red); assay type: cell-based; details: human, nctc2544 cells, read-out: Cellular Viability Rate; for viability at 24 h, 50000 µM: 5.10-2M; for viability at 24 h, 5000 µM: 5.10-3M; for viability at 24 h, 500 µM: 5.10-4M; for viability at 24 h, 10000 µM: 10^-2M; for viability at 24 h, 1000 µM: 10^-3M; for viability at 24 h, 100 µM: 10^-4M; for viability at 24 h, 10 µM: 10^-5M
Source text: as §1

[6] = tested on: keratinocyte culture (detachment of corneocytes); assay: Desquamating test, detachment of corneocytes in vitro; assay type: cell-based; details: for T60-T0 mean difference: p less than 0.001; for activity at 100 µM / activity at 10 µM / activity at 1 µM: Keratinocyte, read-out: %/TN, proportion of detached corneocytes relative to the negative test
Source text: Variation coefficient CV is obtained as follows: [formula]
Actually, the therapeutic applications incidentally involve cosmetic applications.

in vitro = details: keratinocyte culture
Method: A keratinocyte culture that was placed under conditions that promote the differentiation of cells was selected as a cellular model for the study. The actions of sophorolipids in acid form A, sophorolipids in lactone form B, and lactic acid on the detachment of corneocytes of the selected cellular model were tested in vitro in parallel. In each experiment, the mean difference T60-T0 (corneocytes/ml), as well as the proportion of detached corneocytes, expressed in percentage relative to the negative test (%/TN), were determined.
Cellular viability, measured with the Neutral Red test, is expressed relative to the negative test (%).

## CC(CCCCCC/C=C\CCCCCCCC(=O)O)O[C@@H]1O[C@H](CO)[C@@H](O)[C@H](O)[C@H]1O[C@@H]1O[C@H](CO)[C@@H](O)[C@H](O)[C@H]1O (stereo partly shown) [Sophorolipid in Acid Form]
[1]; 4 hours, 10% MS
  Lysis of the fibrin clot: 75 % relative to TN
[1]; 4 hours, 10-1M
  Lysis of the fibrin clot: 66 % relative to TN
[1]; 4 hours, 10^-2M
  Lysis of the fibrin clot: 5 % relative to TN
[1]; 4 hours, 10^-3M
  Lysis of the fibrin clot: 0 % relative to TN
[1]; 4 hours, 10^-4M
  Lysis of the fibrin clot: 0 % relative to TN
[1]; 4 hours, 10^-5M
  Lysis of the fibrin clot: 0 % relative to TN
[1]; 24 hours, 10% MS
  Lysis of the fibrin clot: 90 % relative to TN
[1]; 24 hours, 10-1M
  Lysis of the fibrin clot: 80 % relative to TN
[1]; 24 hours, 10^-2M
  Lysis of the fibrin clot: 40 % relative to TN
[1]; 24 hours, 10^-3M
  Lysis of the fibrin clot: 20 % relative to TN
[1]; 24 hours, 10^-4M
  Lysis of the fibrin clot: 5 % relative to TN
[1]; 24 hours, 10^-5M
  Lysis of the fibrin clot: 0 % relative to TN
[2]
  viability at 24 h, 1000 µM: 85.7%
  viability at 24 h, 100 µM: 98.3%
  viability at 24 h, 10 µM: 98.7%
  viability at 24 h, 1 µM: 99.7%
[3]
  viability at 24 h, 1000 µM: 86.7%
  viability at 24 h, 100 µM: 99.3%
  viability at 24 h, 10 µM: 99.9%
  viability at 24 h, 1 µM: 99.5%
[4]
  viability at 24 h, 50000 µM: 5.47%
  viability at 24 h, 5000 µM: 7.62%
  viability at 24 h, 500 µM: 99.2%
  viability at 24 h, 10000 µM: 6.18%
  viability at 24 h, 1000 µM: 100%
  viability at 24 h, 100 µM: 102%
  viability at 24 h, 10 µM: 101%
[5]
  viability at 24 h, 50000 µM: 6.35%
  viability at 24 h, 5000 µM: 8.34%
  viability at 24 h, 500 µM: 99.9%
  viability at 24 h, 10000 µM: 7.12%
  viability at 24 h, 1000 µM: 100%
  viability at 24 h, 100 µM: 100%
  viability at 24 h, 10 µM: 101%
[6]; 10^-4M
  T60-T0 mean difference: 2278 corneocytes/ml
  activity at 100 µM: 195%
[6]; 10^-5M
  T60-T0 mean difference: 1944 corneocytes/ml
  activity at 10 µM: 167%
[6]; 10^-6M
  T60-T0 mean difference: 1555 corneocytes/ml
  activity at 1 µM: 133%
In vitro
  viability at 1 µM: 99.6%
  viability at 10 µM: 99.8%
  viability at 100 µM: 98.7%

## CC1CCCCCC/C=C\CCCCCCCC(=O)O[C@H]2[C@H](O)[C@@H](O)[C@H](O[C@H]3[C@H](O1)O[C@H](CO)[C@@H](O)[C@@H]3O)O[C@@H]2CO (stereo partly shown) [Sophorolipid in Lactone Form]
[1]; 4 hours, 30% MS
  Lysis of the fibrin clot: 15 % relative to TN
[1]; 24 hours, 30% MS
  Lysis of the fibrin clot: 33 % relative to TN
[2]
  viability at 24 h, 1000 µM: 5.96%
  viability at 24 h, 100 µM: 91.2%
  viability at 24 h, 10 µM: 100%
  viability at 24 h, 1 µM: 101%
[3]
  viability at 24 h, 1000 µM: 6.58%
  viability at 24 h, 100 µM: 95.9%
  viability at 24 h, 10 µM: 99.6%
  viability at 24 h, 1 µM: 99.6%
[4]
  viability at 24 h, 50000 µM: 5.65%
  viability at 24 h, 5000 µM: 5.44%
  viability at 24 h, 500 µM: 6.63%
  viability at 24 h, 10000 µM: 5.26%
  viability at 24 h, 1000 µM: 5.71%
  viability at 24 h, 100 µM: 87%
  viability at 24 h, 10 µM: 96.5%
[5]
  viability at 24 h, 50000 µM: 5.86%
  viability at 24 h, 5000 µM: 6.44%
  viability at 24 h, 500 µM: 8.7%
  viability at 24 h, 10000 µM: 6.49%
  viability at 24 h, 1000 µM: 6.17%
  viability at 24 h, 100 µM: 85.2%
  viability at 24 h, 10 µM: 95.5%
[6]; 10^-4M
  T60-T0 mean difference: 2389 corneocytes/ml
  activity at 100 µM: 205%
[6]; 10^-5M
  T60-T0 mean difference: 1833 corneocytes/ml
  activity at 10 µM: 157%
[6]; 10^-6M
  T60-T0 mean difference: 1528 corneocytes/ml
  activity at 1 µM: 131%
In vitro
  viability at 1 µM: 98.8%
  viability at 10 µM: 101%
  viability at 100 µM: 99.1%
